This note sets out measurements from patent US20250011368A1, “DLL3 TARGETING PEPTIDES AND CONSTRUCTS THEREOF” (MARIANA ONCOLOGY INC., priority 2023, published 2025).

SMILES strings stand for the structures. pKd: −log10 of the molar value. Numbered stars: 1 amine (or outer) side, 2 acyl side, 3 side chain; on linkers, the order of the positions; unused ones are H or OH. Bridge positions count the residues as written; N and C are the ends. Square brackets hold non-standard residues; d marks the D form. Side chains are listed from the residue outwards. Peptide text beside a SMILES is read from it. * marks the point of attachment. ξ: configuration not given here. X4 = O=C(O)CN1CCN(CC(=O)O)CCN(CC(=O)N[C@H]2CC[C@H](CC(=O)*)CC2)CCN(CC(=O)O)CC1; Ala(piperidin-4-yl) = O=C([C@H](CC1CCN([*:3])CC1)N[*:1])[*:2]; DOTA = O=C(O)CN1CCN(CC(=O)O)CCN(CC(=O)*)CCN(CC(=O)O)CC1; Phe(4-CF3) = N[C@@H](Cc1ccc(C(F)(F)F)cc1)C(=O)O; Trp(5-F) = N[C@@H](Cc1c[nH]c2ccc(F)cc12)C(=O)O; Trp(7-aza) = N[C@@H](Cc1c[nH]c2ncccc12)C(=O)O; Pro(trans-4-F) = O=C(O)[C@@H]1C[C@@H](F)CN1; PEG8 = NCCOCCOCCOCCOCCOCCOCCOCCOCCC(=O)O; Phe(4-F) = N[C@@H](Cc1ccc(F)cc1)C(=O)O; 2Nal = N[C@@H](Cc1ccc2ccccc2c1)C(=O)O; Gly(4-THP) = N[C@H](C(=O)O)C1CCOCC1; X12 = C[N+](C)(CCN[*:1])CC(=O)[*:2]; Cba = N[C@@H](CC1CCC1)C(=O)O; Chg = N[C@H](C(=O)O)C1CCCCC1; Aze = O=C(O)[C@@H]1CCN1; ξD = NC(CC(=O)O)C(=O)O

The target in the test is T1, human DLL3 (Homo sapiens, UniProt Q9NYJ7).
T1 sequence (Q9NYJ7 27-618): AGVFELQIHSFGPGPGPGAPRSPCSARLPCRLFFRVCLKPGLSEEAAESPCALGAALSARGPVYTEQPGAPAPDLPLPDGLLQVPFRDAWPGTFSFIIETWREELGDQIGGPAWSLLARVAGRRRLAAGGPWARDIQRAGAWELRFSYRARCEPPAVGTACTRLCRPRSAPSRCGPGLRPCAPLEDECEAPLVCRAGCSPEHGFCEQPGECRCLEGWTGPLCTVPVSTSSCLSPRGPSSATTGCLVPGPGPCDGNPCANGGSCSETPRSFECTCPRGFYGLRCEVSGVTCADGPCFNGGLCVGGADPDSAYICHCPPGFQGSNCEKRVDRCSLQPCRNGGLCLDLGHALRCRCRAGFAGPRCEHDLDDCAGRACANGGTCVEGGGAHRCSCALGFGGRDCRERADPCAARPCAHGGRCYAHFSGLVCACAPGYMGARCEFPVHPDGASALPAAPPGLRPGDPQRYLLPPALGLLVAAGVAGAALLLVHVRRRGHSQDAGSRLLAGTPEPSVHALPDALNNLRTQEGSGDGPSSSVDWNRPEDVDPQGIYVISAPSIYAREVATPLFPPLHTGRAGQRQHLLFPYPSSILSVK
As to the kind of experiment: Affinity determination by Surface Plasmon Resonance (SPR). Type of test: binding. To be noted: 25° C., biotinylated human DLL3 immobilized on streptavidin sensor chip, 1:1 binding model; read-out: SPR KD. A digest of the protocol: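 Biotinylated human DLL3 was captured on a streptavidin chip with a reference surface. Compounds at several concentrations were injected at 100 μL/minute in phosphate buffer (137 mM NaCl, 2.7 mM KCl, 0.05% P20, 2% DMSO). Affinity and kinetics came from 1:1 model fits of the sensorgrams.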
Take `CC[C@H](C)[C@H](NC(=O)[C@@H](NC(=O)[C@H](Cc1c[nH]c2ccccc12)NC(C)=O)[C@@H](C)O)C(=O)N[C@H]1CSSC[C@@H](C(=O)N[C@@H](Cc2c[nH]c3ccccc23)C(=O)N2CCC[C@H]2C(=O)NCC[N+](C)(C)CC(=O)NCCOCCOCCOCCOCCOCCOCCOCCOCCC(=O)N[C@H](CCCCNC(=O)CN2CCN(CC(=O)O)CCN(CC(=O)O)CCN(CC(=O)O)CC2)C(N)=O)NC(=O)[C@H](CC(=O)O)NC(=O)[C@H](Cc2c[nH]cn2)NC(=O)[C@H](Cc2ccc3ccccc3c2)NC(=O)[C@H](CC(N)=O)NC(=O)[C@H](CC(N)=O)NC1=O` [compound 364, Ac-W-T-I-C(3)-N-N-(2Nal)-H-D-C(3)-W-P-SP6-PEG8-[D-Lys(DOTA)]-NH2] (Ac-WTICNN[2Nal]HDCWP[X12][PEG8][dK](DOTA)-NH2; disulfide 4-10): the pKd was over 9.00.
`CC(=O)N[C@@H](Cc1c[nH]c2ccccc12)C(=O)N[C@H](C(=O)N[C@@H](Cc1ccc2ccccc2c1)C(=O)N[C@H]1CSSC[C@@H](C(=O)N[C@@H](Cc2c[nH]c3ccccc23)C(=O)N2CCC[C@H]2C(=O)N[C@H](CCCCNC(=O)CN2CCN(CC(=O)O)CCN(CC(=O)O)CCN(CC(=O)O)CC2)C(N)=O)NC(=O)[C@H](CC(=O)O)NC(=O)[C@H](Cc2c[nH]cn2)NC(=O)[C@H](Cc2c[nH]c3ccccc23)NC(=O)[C@H](CC(N)=O)NC(=O)[C@H](CC(N)=O)NC1=O)[C@@H](C)O` [compound 116, Ac-W-T-(2Nal)-C(3)-N-N-W-H-D-C(3)-W-P-[D-Lys(DOTA)]-NH2] (Ac-WT[2Nal]CNNWHDCWP[dK](DOTA)-NH2; disulfide 4-10): the pKd was 7.00 to 8.00.
For `CC[C@H](C)[C@H](NC(=O)[C@@H](NC(=O)[C@H](Cc1c[nH]c2ccccc12)NC(C)=O)[C@@H](C)O)C(=O)N[C@H]1CSSC[C@@H](C(=O)N[C@@H](Cc2c[nH]c3ccccc23)C(=O)N2CCC[C@H]2C(=O)N[C@H](CCCCNC(=O)CN2CCN(CC(=O)O)CCN(CC(=O)O)CCN(CC(=O)O)CC2)C(N)=O)NC(=O)[C@H](CC(=O)O)NC(=O)[C@H](Cc2cnc[nH]2)NC(=O)[C@H](Cc2c[nH]c3ccccc23)NC(=O)[C@H](CC(N)=O)NC(=O)[C@H](CCC(=O)O)NC1=O` [compound 277, Ac-W-T-I-C(3)-Glu-N-W-H-D-C(3)-W-P-[D-Lys(DOTA)]-NH2] (Ac-WTICENWHDCWP[dK](DOTA)-NH2; disulfide 4-10), the negative logarithm of the Kd (pKd) is over 9.00.
Take `CC(=O)N[C@@H](Cc1c[nH]c2ccc(F)cc12)C(=O)N[C@H](C(=O)N[C@H](C(=O)N[C@H]1CSSC[C@@H](C(=O)N[C@@H](Cc2c[nH]c3ncccc23)C(=O)N2C[C@H](F)C[C@H]2C(=O)N[C@H](CCCCNC(=O)CN2CCN(CC(=O)O)CCN(CC(=O)O)CCN(CC(=O)O)CC2)C(N)=O)NC(=O)[C@H](CC(=O)O)NC(=O)[C@H](Cc2cnc[nH]2)NC(=O)[C@H](Cc2ccc(C(F)(F)F)cc2)NC(=O)[C@H](CC(N)=O)NC(=O)[C@H](CC(N)=O)NC1=O)C1CCOCC1)[C@@H](C)O` [compound 147, Ac-(5Fluoro-W)-T-(THPG)-C(3)-N-N-(4CF3-F)-H-D-C(3)-(7Aza-W)-(trans4Fluoro-P)-[D-Lys(DOTA)]-NH2] (Ac-[Trp(5-F)]T[Gly(4-THP)]CNN[Phe(4-CF3)]HDC[Trp(7-aza)][Pro(trans-4-F)][dK](DOTA)-NH2; disulfide 4-10): the negative logarithm of the Kd (pKd) is 8.00 to 9.00.
For `CC[C@H](C)[C@H](NC(=O)[C@@H](NC(=O)[C@H](Cc1c[nH]c2ccccc12)NC(C)=O)[C@@H](C)O)C(=O)N[C@H]1CSSC[C@@H](C(=O)N[C@@H](Cc2c[nH]c3ccccc23)C(=O)N2CCC[C@H]2C(=O)N[C@H](CCCCNC(=O)CN2CCN(CC(=O)O)CCN(CC(=O)O)CCN(CC(=O)O)CC2)C(N)=O)NC(=O)[C@H](CC(=O)O)NC(=O)[C@H](Cc2cnc[nH]2)NC(=O)[C@H](Cc2ccc3ccccc3c2)NC(=O)[C@H](CC(=O)O)NC(=O)[C@H](CC(N)=O)NC1=O` [compound 209, Ac-W-T-I-C(3)-N-(Asp)-(2Nal)-H-D-C(3)-W-P-[D-Lys(DOTA)]-NH2] (Ac-WTICND[2Nal]HDCWP[dK](DOTA)-NH2; disulfide 4-10), the pKd is over 9.00.
With `CC[C@H](C)[C@H](NC(=O)[C@@H](NC(=O)[C@H](Cc1c[nH]c2ccccc12)NC(C)=O)[C@@H](C)O)C(=O)N[C@H]1CSSC[C@@H](C(=O)N[C@@H](Cc2c[nH]c3ccccc23)C(=O)N2CCC[C@H]2C(=O)NCC(=O)N[C@@H](CO)C(=O)NCC(=O)N[C@@H](CO)C(=O)NCC(=O)N[C@@H](CO)C(=O)N[C@H](CCCCNC(=O)CN2CCN(CC(=O)O)CCN(CC(=O)O)CCN(CC(=O)O)CC2)C(N)=O)NC(=O)C(CC(=O)O)NC(=O)[C@H](Cc2cnc[nH]2)NC(=O)[C@H](Cc2ccc3ccccc3c2)NC(=O)[C@H](CC(N)=O)NC(=O)[C@H](CC(N)=O)NC1=O` (stereo partly drawn) [compound 232, Ac-W-T-I-C(3)-N-N-(2Nal)-H-D-C(3)-W-P-G-S-G-S-G-S-[D-Lys(DOTA)]-NH2] (Ac-WTICNN[2Nal]H[ξD]CWPGSGSGS[dK](DOTA)-NH2; disulfide 4-10), the negative-log Kd (pKd) is over 9.00.
As for `CC(=O)N[C@@H](Cc1c[nH]c2ccccc12)C(=O)N[C@H](C(=O)N[C@H](C(=O)N[C@H]1CSSC[C@@H](C(=O)N[C@@H](Cc2c[nH]c3ccccc23)C(=O)N2CCC[C@H]2C(=O)N[C@H](CCCCNC(=O)C[C@H]2CC[C@H](NC(=O)CN3CCN(CC(=O)O)CCN(CC(=O)O)CCN(CC(=O)O)CC3)CC2)C(N)=O)NC(=O)[C@H](CC(=O)O)NC(=O)[C@H](Cc2c[nH]cn2)NC(=O)[C@H](Cc2ccc3ccccc3c2)NC(=O)[C@H](CC(N)=O)NC(=O)[C@H](CC2CCNCC2)NC1=O)C1CCCCC1)[C@@H](C)O` [compound 286, Ac-W-T-(Chg)-C(3)-[3-(4-piperidinyl)-Ala]-N-(2Nal)-H-D-C(3)-W-P-[D-Lys(Chx-DOTA)]-NH2] (Ac-WT[Chg]C[Ala(piperidin-4-yl)]N[2Nal]HDCWP[dK](X4)-NH2; disulfide 4-10), the pKd was over 9.00.
Regarding `CC(=O)N[C@@H](Cc1c[nH]c2ccc(F)cc12)C(=O)N[C@H](C(=O)N[C@@H](CC1CCC1)C(=O)N[C@H]1CSSC[C@@H](C(=O)N[C@@H](Cc2c[nH]c3ncccc23)C(=O)N2CC[C@H]2C(=O)N[C@H](CCCCNC(=O)CN2CCN(CC(=O)O)CCN(CC(=O)O)CCN(CC(=O)O)CC2)C(N)=O)NC(=O)[C@H](CC(=O)O)NC(=O)[C@H](Cc2cnc[nH]2)NC(=O)[C@H](Cc2ccc(F)cc2)NC(=O)[C@H](CC(N)=O)NC(=O)[C@H](CC(N)=O)NC1=O)[C@@H](C)O` [compound 126, Ac-(5Fluoro-W)-T-(CBA)-C(3)-N-N-(4Fluoro-F)-H-D-C(3)-(7Aza-W)-(Aze)-[D-Lys(DOTA)]-NH2] (Ac-[Trp(5-F)]T[Cba]CNN[Phe(4-F)]HDC[Trp(7-aza)][Aze][dK](DOTA)-NH2; disulfide 4-10), the negative-log Kd (pKd) was 7.00 to 8.00.
Consider `CC[C@H](C)[C@H](NC(=O)[C@@H](NC(=O)[C@H](Cc1c[nH]c2ccccc12)NC(C)=O)[C@@H](C)O)C(=O)N[C@H]1CSSC[C@@H](C(=O)N[C@@H](Cc2c[nH]c3ccccc23)C(=O)N2CCC[C@H]2C(=O)N[C@H](CCCCNC(=O)[C@H]2CCCN2C(=O)CCOCCOCCOCCOCCOCCOCCOCCOCCNC(=O)CN2CCN(CC(=O)O)CCN(CC(=O)O)CCN(CC(=O)O)CC2)C(N)=O)NC(=O)[C@H](CC(=O)O)NC(=O)[C@H](Cc2cnc[nH]2)NC(=O)[C@H](Cc2ccc3ccccc3c2)NC(=O)[C@H](CC(N)=O)NC(=O)[C@H](CC(N)=O)NC1=O` [compound 356, Ac-W-T-I-C(3)-N-N-(2Nal)-H-D-C(3)-W-P-[D-Lys((D-Pro)-PEG8-DOTA)]-NH2] (Ac-WTICNN[2Nal]HDCWP[dK]([dP-PEG8-DOTA])-NH2; disulfide 4-10), for which the pKd is over 9.00.
For the compound `CC(=O)N[C@@H](Cc1c[nH]c2ccc(F)cc12)C(=O)N[C@H](C(=O)N[C@H](C(=O)N[C@H]1CSSC[C@@H](C(=O)N[C@@H](Cc2c[nH]c3ncccc23)C(=O)N2CC[C@H]2C(=O)N[C@H](CCCCNC(=O)CN2CCN(CC(=O)O)CCN(CC(=O)O)CCN(CC(=O)O)CC2)C(N)=O)NC(=O)[C@H](CC(=O)O)NC(=O)[C@H](Cc2cnc[nH]2)NC(=O)[C@H](Cc2ccc(C(F)(F)F)cc2)NC(=O)[C@H](CC(N)=O)NC(=O)[C@H](CC(N)=O)NC1=O)C1CCOCC1)[C@@H](C)O` [compound 139, Ac-(5Fluoro-W)-T-(THPG)-C(3)-N-N-(4CF3-F)-H-D-C(3)-(7Aza-W)-(Aze)-[D-Lys(DOTA)]-NH2] (Ac-[Trp(5-F)]T[Gly(4-THP)]CNN[Phe(4-CF3)]HDC[Trp(7-aza)][Aze][dK](DOTA)-NH2; disulfide 4-10), the pKd is 8.00 to 9.00.
On to `CC(=O)N[C@@H](Cc1c[nH]c2ccccc12)C(=O)N[C@H](C(=O)N[C@H](C(=O)N[C@H]1CSSC[C@@H](C(=O)N[C@@H](Cc2c[nH]c3ncccc23)C(=O)N2CCC[C@H]2C(=O)N[C@H](CCCCNC(=O)CN2CCN(CC(=O)O)CCN(CC(=O)O)CCN(CC(=O)O)CC2)C(N)=O)NC(=O)[C@H](CC(=O)O)NC(=O)[C@H](Cc2cnc[nH]2)NC(=O)[C@H](Cc2ccc3ccccc3c2)NC(=O)[C@H](C)NC(=O)[C@H](CC(N)=O)NC1=O)C1CCCCC1)[C@@H](C)O` [compound 197, Ac-W-T-(Chg)-C(3)-N-A-(2Nal)-H-D-C(3)-(7-Aza-W)-P-[D-Lys(DOTA)]-NH2] (Ac-WT[Chg]CNA[2Nal]HDC[Trp(7-aza)]P[dK](DOTA)-NH2; disulfide 4-10), for which the negative logarithm of the Kd (pKd) is over 9.00.

One may read the pKd as the Kd on a negative log10 scale, so that one unit is a factor of ten.
